Converted amounts (≈) assume the structure as drawn.
Assays:
[1] = Kinetic solubility of compound in FeSSIF buffer incubated for 2 hrs by LC-MS/MS analysis; type: physicochemical; conditions: read-out: Kinetic_solubility
[2] = target: T1, Protein cereblon/Cyclin-dependent kinase 9 (Homo sapiens, UniProt P50750+Q96SW2); assay: PROTAC activity at CRBN/CDK9 in human NCI-H446 cells assessed as induction of CDK9 degradation at 10 nM by Western blot analysis relative to control; type: cell-based
Target sequence in this assay (P50750 whole entry, looked up): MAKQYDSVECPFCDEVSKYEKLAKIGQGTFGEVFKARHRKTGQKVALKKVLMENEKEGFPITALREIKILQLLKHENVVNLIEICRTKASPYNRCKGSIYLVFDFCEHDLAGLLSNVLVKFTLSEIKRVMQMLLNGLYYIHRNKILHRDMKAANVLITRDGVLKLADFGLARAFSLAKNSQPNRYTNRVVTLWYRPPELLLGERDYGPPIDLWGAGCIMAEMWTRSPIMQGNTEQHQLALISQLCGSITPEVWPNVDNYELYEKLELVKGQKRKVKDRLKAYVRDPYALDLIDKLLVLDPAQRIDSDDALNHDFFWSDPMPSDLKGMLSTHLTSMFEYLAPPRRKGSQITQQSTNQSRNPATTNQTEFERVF
Target sequence in this assay (Q96SW2 whole entry, looked up): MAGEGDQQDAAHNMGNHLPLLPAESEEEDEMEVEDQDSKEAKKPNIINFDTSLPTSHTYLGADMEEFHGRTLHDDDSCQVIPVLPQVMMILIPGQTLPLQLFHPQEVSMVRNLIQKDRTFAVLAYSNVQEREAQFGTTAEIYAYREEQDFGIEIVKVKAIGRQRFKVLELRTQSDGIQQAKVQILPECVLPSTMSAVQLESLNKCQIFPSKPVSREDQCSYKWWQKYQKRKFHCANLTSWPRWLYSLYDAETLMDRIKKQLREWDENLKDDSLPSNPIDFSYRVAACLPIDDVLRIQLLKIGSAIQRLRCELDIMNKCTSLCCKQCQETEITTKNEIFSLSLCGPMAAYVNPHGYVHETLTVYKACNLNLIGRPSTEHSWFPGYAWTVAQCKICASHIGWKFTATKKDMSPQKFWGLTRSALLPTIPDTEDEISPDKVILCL

[3] = target: T1, Protein cereblon/Cyclin-dependent kinase 9; assay: PROTAC activity at CRBN/CDK9 in human NCI-H69 cells assessed as induction of CDK9 degradation at 10 nM by Western blot analysis relative to control; type: cell-based
Target sequence in this assay (P50750 whole entry, looked up): as the sequence (P50750 whole entry, looked up) above
Target sequence in this assay (Q96SW2 whole entry, looked up): as the sequence (Q96SW2 whole entry, looked up) above

NCI-H446 = assay: Antiproliferative activity against human NCI-H446 cells assessed as inhibition of cell growth incubated for 72 hrs by CCK8 assay; type: functional, cell-based; conditions: NCI-H446, 72 h
NCI-H69 [4] = assay: Antiproliferative activity against human NCI-H69 cells assessed as inhibition of cell growth incubated for 72 hrs by CCK8 assay; type: functional, cell-based; conditions: NCI-H69, 72 h
NCI-H69 [5] = assay: Induction of apoptosis in human NCI-H69 cells assessed as decrease in BCL-2 expression incubated for 36 hrs by Western blot analysis; type: functional, cell-based
[6] = target: T2, Cyclin-dependent kinase 5/CDK5 activator 1 (Homo sapiens) (UniProt Q00535+Q15078); assay: Inhibition of CDK5/p25NCK (unknown origin) at 10 nM relative to control; type: protein-complex assay
NCI-H69 [7] = assay: Induction of apoptosis in human NCI-H69 cells assessed as increase in cleaved caspase-3 level incubated for 36 hrs by Western blot analysis; type: functional, cell-based
NCI-H69 [8] = assay: Induction of apoptosis in human NCI-H69 cells assessed as increase in cleaved PARP level incubated for 36 hrs by Western blot analysis; type: functional, cell-based
NCI-H69 [9] = assay: Induction of apoptosis in human NCI-H69 cells assessed as decrease in MCL-1 expression incubated for 36 hrs by Western blot analysis; type: functional, cell-based
[10] = target: CDK12/Cyclin K (Homo sapiens) (UniProt O75909+Q9NYV4); assay: Inhibition of CDK12/Cyclin K (unknown origin) at 10 nM relative to control; type: protein-complex assay
[11] = target: CDK3/Cyclin E (Homo sapiens) (UniProt P24864+Q00526); assay: Inhibition of CDK3/cyclin E1 (unknown origin) at 10 nM relative to control; type: protein-complex assay
[12] = target: CDK6/cyclin D1 (Homo sapiens) (UniProt P24385+Q00534); assay: Inhibition of CDK6/cyclin D1 (unknown origin) at 10 nM relative to control; type: protein-complex assay
[13] = target: Cyclin-dependent kinase 13/Cyclin-K (Homo sapiens) (UniProt Q14004+O75909); assay: Inhibition of CDK13/Cyclin K (unknown origin) at 10 nM relative to control; type: protein-complex assay
[14] = target: Cyclin-dependent kinase 1/cyclin B1 (Homo sapiens) (UniProt P06493+P14635); assay: Inhibition of CDK1/cyclin B1 (unknown origin) at 10 nM relative to control; type: protein-complex assay
[15] = target: CDK9/cyclin T1 (Homo sapiens) (UniProt O60563+P50750); assay: Inhibition of CDK9/Cyclin T1 (unknown origin) at 10 nM relative to control; type: protein-complex assay
[16] = target: T2, Cyclin-dependent kinase 5/CDK5 activator 1 (Homo sapiens); assay: Inhibition of CDK5/p35NCK (unknown origin) at 10 nM relative to control; type: protein-complex assay
[17] = target: CDK4/Cyclin D3 (Homo sapiens) (UniProt P11802+P30281); assay: Inhibition of CDK4/cyclin D3 (unknown origin) at 10 nM relative to control; type: protein-complex assay
[18] = target: CDK6/cyclin D3 (Homo sapiens) (UniProt P30281+Q00534); assay: Inhibition of CDK6/cyclin D3 (unknown origin) at 10 nM relative to control; type: protein-complex assay
[19] = target: Cyclin-dependent kinase 4/cyclin D1 (Homo sapiens) (UniProt P11802+P24385); assay: Inhibition of CDK4/cyclin D1 (unknown origin) at 10 nM relative to control; type: protein-complex assay
NCI-H69 [20] = assay: Induction of apoptosis in human NCI-H69 cells assessed as increase in p53 level incubated for 36 hrs by Western blot analysis; type: functional, cell-based
[21] = Metabolic stability in mouse liver microsomes assessed as intrinsic clearance; type: ADME, Microsome; conditions: liver microsomes, read-out: CLH
[22] = Metabolic stability in mouse liver microsomes assessed as parent compound remaining measured after 60 mins; type: ADME, Microsome; conditions: read-out: Stability
[23] = Metabolic stability in human liver microsomes assessed as intrinsic clearance; type: ADME, Microsome; conditions: liver microsomes, read-out: CLH
[24] = Metabolic stability in human liver microsomes assessed as parent compound remaining measured after 60 mins; type: ADME, Microsome; conditions: read-out: Stability
[25] = Metabolic stability in mouse liver microsomes assessed as half-life; type: ADME, Microsome; conditions: liver microsomes
[26] = target: T1, Protein cereblon/Cyclin-dependent kinase 9; assay: PROTAC activity at CRBN/CDK9 in human NCI-H69 cells assessed as induction of CDK9 degradation incubated for 8 hrs by Western blot analysis; type: cell-based
Target sequence in this assay (P50750 whole entry): as the sequence (P50750 whole entry, looked up) above
Target sequence in this assay (Q96SW2 whole entry): as the sequence (Q96SW2 whole entry, looked up) above

[27] = Metabolic stability in human liver microsomes assessed as half-life; type: ADME, Microsome; conditions: liver microsomes
[28] = Efflux ratio of apparent permeability across basolateral to apical over apical to basolateral side in human Caco-2 cells at 2 uM measured after 60 mins by HPLC analysis; type: ADME, cell-based
[29] = Apparent permeability across apical to basolateral side in human Caco-2 cells at 2 uM measured after 60 mins by HPLC analysis; type: ADME, cell-based
[30] = Apparent permeability across basolateral to apical side in human Caco-2 cells at 2 uM measured after 60 mins by HPLC analysis; type: ADME, cell-based

T2 sequence (Q00535 whole entry): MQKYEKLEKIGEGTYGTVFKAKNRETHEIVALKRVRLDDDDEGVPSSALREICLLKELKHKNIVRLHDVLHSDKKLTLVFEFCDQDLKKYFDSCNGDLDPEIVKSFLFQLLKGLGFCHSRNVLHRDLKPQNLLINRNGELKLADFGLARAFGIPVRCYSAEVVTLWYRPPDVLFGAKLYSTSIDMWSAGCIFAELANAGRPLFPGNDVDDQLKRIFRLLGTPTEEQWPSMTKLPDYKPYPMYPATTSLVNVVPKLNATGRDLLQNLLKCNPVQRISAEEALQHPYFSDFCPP
T2 sequence (Q15078 99-307 partner limits assumed): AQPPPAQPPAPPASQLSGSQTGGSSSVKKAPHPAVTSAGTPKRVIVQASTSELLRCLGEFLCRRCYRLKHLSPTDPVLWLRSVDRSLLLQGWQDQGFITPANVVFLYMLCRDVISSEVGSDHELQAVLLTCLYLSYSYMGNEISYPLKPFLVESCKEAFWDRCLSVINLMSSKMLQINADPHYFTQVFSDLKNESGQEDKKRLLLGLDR
CDK12/Cyclin K (Homo sapiens), sequence (O75909 whole entry, looked up): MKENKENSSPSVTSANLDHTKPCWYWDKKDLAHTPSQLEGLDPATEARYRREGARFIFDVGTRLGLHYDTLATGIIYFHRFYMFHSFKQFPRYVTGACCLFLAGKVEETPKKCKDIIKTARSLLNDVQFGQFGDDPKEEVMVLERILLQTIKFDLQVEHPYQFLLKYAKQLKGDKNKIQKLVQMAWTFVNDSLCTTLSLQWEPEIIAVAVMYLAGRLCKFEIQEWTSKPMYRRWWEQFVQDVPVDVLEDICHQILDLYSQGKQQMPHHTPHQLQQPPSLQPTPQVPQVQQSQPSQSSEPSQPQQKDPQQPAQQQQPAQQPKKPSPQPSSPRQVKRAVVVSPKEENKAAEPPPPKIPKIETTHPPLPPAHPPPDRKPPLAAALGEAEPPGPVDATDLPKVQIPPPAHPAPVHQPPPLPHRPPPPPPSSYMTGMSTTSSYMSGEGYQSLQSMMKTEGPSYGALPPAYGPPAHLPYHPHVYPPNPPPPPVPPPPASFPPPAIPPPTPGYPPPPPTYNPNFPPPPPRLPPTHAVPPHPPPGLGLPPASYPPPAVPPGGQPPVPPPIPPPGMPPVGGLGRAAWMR
CDK12/Cyclin K (Homo sapiens), sequence (Q9NYV4 whole entry, looked up): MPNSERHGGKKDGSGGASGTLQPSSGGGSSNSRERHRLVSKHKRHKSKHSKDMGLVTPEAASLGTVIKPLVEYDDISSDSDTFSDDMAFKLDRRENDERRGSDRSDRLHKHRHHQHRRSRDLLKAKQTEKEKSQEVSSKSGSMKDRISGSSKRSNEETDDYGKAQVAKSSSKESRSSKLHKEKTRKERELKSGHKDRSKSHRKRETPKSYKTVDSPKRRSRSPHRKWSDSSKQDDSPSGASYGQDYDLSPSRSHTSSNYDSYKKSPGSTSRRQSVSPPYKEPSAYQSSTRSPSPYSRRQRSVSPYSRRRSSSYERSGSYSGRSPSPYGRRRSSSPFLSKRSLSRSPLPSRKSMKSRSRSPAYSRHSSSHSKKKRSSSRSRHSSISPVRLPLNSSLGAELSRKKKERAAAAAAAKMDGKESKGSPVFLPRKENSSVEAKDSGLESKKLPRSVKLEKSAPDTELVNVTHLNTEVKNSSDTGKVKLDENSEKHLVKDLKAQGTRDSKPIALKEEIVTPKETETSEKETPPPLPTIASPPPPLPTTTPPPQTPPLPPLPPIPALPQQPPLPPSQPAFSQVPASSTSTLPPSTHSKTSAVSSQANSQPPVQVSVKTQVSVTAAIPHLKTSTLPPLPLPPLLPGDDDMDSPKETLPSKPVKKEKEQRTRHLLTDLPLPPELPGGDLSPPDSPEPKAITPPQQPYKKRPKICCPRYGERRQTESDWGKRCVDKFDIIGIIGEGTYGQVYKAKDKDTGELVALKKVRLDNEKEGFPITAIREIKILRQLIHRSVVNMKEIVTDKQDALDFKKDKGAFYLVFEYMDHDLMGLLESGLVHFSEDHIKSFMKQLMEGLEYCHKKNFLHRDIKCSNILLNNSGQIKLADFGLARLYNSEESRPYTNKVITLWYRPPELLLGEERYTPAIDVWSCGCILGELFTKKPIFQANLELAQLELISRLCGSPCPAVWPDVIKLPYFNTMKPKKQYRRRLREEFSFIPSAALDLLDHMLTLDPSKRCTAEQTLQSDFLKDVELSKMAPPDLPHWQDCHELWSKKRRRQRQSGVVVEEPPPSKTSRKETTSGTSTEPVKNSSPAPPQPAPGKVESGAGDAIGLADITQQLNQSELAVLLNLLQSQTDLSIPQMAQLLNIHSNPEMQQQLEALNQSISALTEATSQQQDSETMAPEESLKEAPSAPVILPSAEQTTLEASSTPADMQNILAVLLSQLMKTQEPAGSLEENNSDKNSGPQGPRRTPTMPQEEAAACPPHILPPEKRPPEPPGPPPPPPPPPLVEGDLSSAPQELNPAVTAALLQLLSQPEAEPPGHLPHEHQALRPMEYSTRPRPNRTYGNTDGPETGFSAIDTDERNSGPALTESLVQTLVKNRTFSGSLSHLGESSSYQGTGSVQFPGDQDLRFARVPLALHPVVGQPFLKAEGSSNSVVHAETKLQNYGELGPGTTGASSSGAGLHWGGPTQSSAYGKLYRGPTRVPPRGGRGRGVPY
CDK3/Cyclin E (Homo sapiens), sequence (P24864 whole entry, looked up): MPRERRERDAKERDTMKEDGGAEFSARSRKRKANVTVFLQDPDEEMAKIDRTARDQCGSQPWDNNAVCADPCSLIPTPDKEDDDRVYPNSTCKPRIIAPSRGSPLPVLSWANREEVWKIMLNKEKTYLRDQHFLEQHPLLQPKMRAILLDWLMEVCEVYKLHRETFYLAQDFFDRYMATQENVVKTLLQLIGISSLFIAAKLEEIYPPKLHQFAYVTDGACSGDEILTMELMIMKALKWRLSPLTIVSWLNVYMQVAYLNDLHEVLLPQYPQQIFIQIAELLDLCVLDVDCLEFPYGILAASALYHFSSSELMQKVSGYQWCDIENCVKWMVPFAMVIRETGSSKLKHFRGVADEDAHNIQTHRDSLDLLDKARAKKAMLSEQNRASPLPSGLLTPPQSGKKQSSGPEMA
CDK3/Cyclin E (Homo sapiens), sequence (Q00526 whole entry, looked up): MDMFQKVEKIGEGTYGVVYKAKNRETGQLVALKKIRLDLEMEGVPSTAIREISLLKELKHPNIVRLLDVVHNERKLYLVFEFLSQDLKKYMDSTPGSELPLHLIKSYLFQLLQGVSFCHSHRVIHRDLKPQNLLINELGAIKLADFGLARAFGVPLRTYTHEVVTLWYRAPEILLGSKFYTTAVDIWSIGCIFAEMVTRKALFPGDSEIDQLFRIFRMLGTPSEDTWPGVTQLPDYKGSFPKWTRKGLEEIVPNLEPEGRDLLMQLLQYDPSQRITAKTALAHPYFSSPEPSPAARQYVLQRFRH

`O=C(O)Cc1ccccc1Nc1c(Cl)cccc1Cl` [DICLOFENAC] showed a solubility kinetic at 2 h [1] of 316 µM (≈ 93.6 µg/mL).

With `O=C1CCC(N2C(=O)c3cccc(NCCCCCN4CCC(NC(=O)c5n[nH]cc5NC(=O)c5c(Cl)cccc5Cl)CC4)c3C2=O)C(=O)N1` (centres undefined) the Activity [2] was 12.8%, the Activity [3] was 8.01% and the IC50 (NCI-H446) was 136 nM. For the same molecule, the IC50 (NCI-H69 [4]) was 217 nM.

In the case of `O=C1CCC(Nc2ccc(N3CCN(CC4CCN(CC(=O)N5CCC(NC(=O)c6n[nH]cc6NC(=O)c6c(Cl)cccc6Cl)CC5)CC4)CC3)c(F)c2)C(=O)N1` (centres undefined), the Activity [2] is reported as 79.3%, the Activity [3] is reported as 66.1% and the IC50 (NCI-H446) is reported as 56.1 nM. For the same molecule, the IC50 (NCI-H69 [4]) was 44.2 nM.

For `O=C1CCC(N2C(=O)c3cccc(NCCCCCCC(=O)N4CCC(NC(=O)c5n[nH]cc5NC(=O)c5c(Cl)cccc5Cl)CC4)c3C2=O)C(=O)N1` (centres undefined), the Activity [2] was 11.2%, the Activity [3] was 0.132% and the IC50 (NCI-H446) was > 1000 nM. The IC50 (NCI-H69 [4]) was > 1000 nM.

For `O=C(NC1CCNCC1)c1n[nH]cc1NC(=O)c1c(Cl)cccc1Cl` [AT-7519], the Activity (NCI-H69 [5]) was “Dose-dependent-effect”, the inhibition [6] was 26% and the Activity (NCI-H69 [7]) was “Dose-dependent-effect”. The Activity (NCI-H69 [8]) was “Dose-dependent-effect”, the Activity (NCI-H69 [9]) was “Dose-dependent-effect” and the inhibition [10] was 29%. The inhibition [11] was 16%, the inhibition [12] was 34% and the inhibition [13] was 36%. The inhibition [14] was 31%, the inhibition [15] was 79% and the inhibition [16] was 20%. It also gave an inhibition [17] of 47%, an IC50 (NCI-H446) of 173 nM and an inhibition [18] of 20%. The inhibition [19] was 36%, the Activity (NCI-H69 [20]) was “Dose-dependent-effect” and the IC50 (NCI-H69 [4]) was 186 nM.

Molecule `O=C1CCC(N2C(=O)c3ccc(N4CCN(CC(=O)N5CCC(CN6CCC(NC(=O)c7n[nH]cc7NC(=O)c7c(Cl)cccc7Cl)CC6)CC5)CC4)cc3C2=O)C(=O)N1` (centres undefined) has an Activity [2] of 81.3%, a microsomal CLint [21] of 16.2 µL/min/mg and an Activity [3] of 86.1%. The remaining at 1 h [22] was 61.1%, the microsomal CLint [23] was 292 µL/min/mg and the remaining at 1 h [24] was 1.2%. It also gave a half-life [25] of 1.43 h, a DC50 [26] of 8.97 nM and a half-life [27] of 0.0792 h. It also gave an IC50 (NCI-H446) of 2.01 nM and an IC50 (NCI-H69 [4]) of 4.82 nM.

`O=C1CCC(N2C(=O)c3ccc(N4CCN(CC5CCN(CC(=O)N6CCC(NC(=O)c7n[nH]cc7NC(=O)c7c(Cl)cccc7Cl)CC6)CC5)CC4)cc3C2=O)C(=O)N1` (centres undefined) gave an Activity [2] of 83.9%, a microsomal CLint [21] of 11 µL/min/mg and an Activity [3] of 89.1%. It also gave an efflux ratio at 1 h, 2 µM [28] of 16.2, a remaining at 1 h [22] of 71.9% and a microsomal CLint [23] of 46 µL/min/mg. For the same molecule, the remaining at 1 h [24] was 24.3%, the half-life [25] was 2.1 h and the DC50 [26] was 3.8 nM. For the same molecule, the solubility kinetic at 2 h [1] was 9.08 µM (≈ 7.83 µg/mL), the half-life [27] was 0.507 h and the Papp A→B at 1 h, 2 µM [29] was 0.326 ×10⁻⁶ cm/s. For the same molecule, the IC50 (NCI-H446) was 2.6 nM, the Papp B→A at 1 h, 2 µM [30] was 5.27 ×10⁻⁶ cm/s and the IC50 (NCI-H69 [4]) was 1.3 nM.

`O=C1CCC(Nc2ccc(N3CCN(CC4CCN(CC(=O)N5CCC(NC(=O)c6n[nH]cc6NC(=O)c6c(Cl)cccc6Cl)CC5)CC4)CC3)cc2)C(=O)N1` (centres undefined) gave an Activity [2] of 74.1%, a microsomal CLint [21] of 10.2 µL/min/mg and an Activity [3] of 88.9%. It also gave a remaining at 1 h [22] of 72%, a microsomal CLint [23] of 26 µL/min/mg and a remaining at 1 h [24] of 64.7%. It also gave a half-life [25] of 2.27 h, a DC50 [26] of 5.67 nM and a half-life [27] of 0.98 h. The IC50 (NCI-H446) was 35.3 nM and the IC50 (NCI-H69 [4]) was 11 nM.

Molecule `CC(C)NCC(O)COc1cccc2ccccc12` (centres undefined) [PROPRANOLOL] has an efflux ratio at 1 h, 2 µM [28] of 1.6, a Papp A→B at 1 h, 2 µM [29] of 9.64 ×10⁻⁶ cm/s and a Papp B→A at 1 h, 2 µM [30] of 15.4 ×10⁻⁶ cm/s.

Work on `O=C(CNc1cccc2c1C(=O)N(C1CCC(=O)NC1=O)C2=O)NCCCCCCCCCCC(=O)N1CCC(NC(=O)c2n[nH]cc2NC(=O)c2c(Cl)cccc2Cl)CC1` (centres undefined) yielded an Activity [2] of 27.9%, an Activity [3] of 21.8% and an IC50 (NCI-H446) of 148 nM. It also gave an IC50 (NCI-H69 [4]) of 161 nM.

Work on `O=C1CCC(N2C(=O)c3ccc(N4CCN(CC5CCN(C(=O)CN6CCC(NC(=O)c7n[nH]cc7NC(=O)c7c(Cl)cccc7Cl)CC6)CC5)CC4)cc3C2=O)C(=O)N1` (centres undefined) yielded an Activity [2] of 78.2%, a microsomal CLint [21] of 16.4 µL/min/mg and an Activity [3] of 88.4%. The remaining at 1 h [22] was 61.2%, the microsomal CLint [23] was 225 µL/min/mg and the remaining at 1 h [24] was 3.2%. It also gave a half-life [25] of 1.41 h, a DC50 [26] of 4.5 nM and a half-life [27] of 0.103 h. For the same molecule, the IC50 (NCI-H446) was 3.7 nM and the IC50 (NCI-H69 [4]) was 6.46 nM.

Molecule `O=C1CCC(N2C(=O)c3cccc(NCCCCC(=O)N4CCC(NC(=O)c5n[nH]cc5NC(=O)c5c(Cl)cccc5Cl)CC4)c3C2=O)C(=O)N1` (centres undefined) has an Activity [2] of 9.92%, an Activity [3] of 3.91% and an IC50 (NCI-H446) of 772 nM. The IC50 (NCI-H69 [4]) was > 1000 nM.

With `O=C1CCC(N2C(=O)c3ccc(N4CCN(C(=O)CN5CCC(CN6CCC(NC(=O)c7n[nH]cc7NC(=O)c7c(Cl)cccc7Cl)CC6)CC5)CC4)cc3C2=O)C(=O)N1` (centres undefined) the Activity [2] was 49.9%, the Activity [3] was 51.5% and the IC50 (NCI-H446) was 18.1 nM. The IC50 (NCI-H69 [4]) was 5.75 nM.

Reference: ChEMBL document CHEMBL6121063, “Identification of a Potent and Selective CDK9 Degrader as a Targeted Therapeutic Option for the Treatment of Small-Cell Lung Cancer” (J Med Chem, 2025)
